The record followed here is ChEMBL document CHEMBL3046064, “Expression of OPN in rat kidney with different doses of vitamin K3 injection” (2007).

The species named for assay [1] is Rattus norvegicus. Briefly: Renoprotective activity in 1% ethylene glycol-treated Rattus norvegicus Sprague-Dawley (rat) kidney assessed as decrease in oxalate excretion in urine at 0.8 mg/day after 14 days (reference value: 4.07 +/- 0.05 uM). Type of assay: functional.
Assay [2] has as its system Rattus norvegicus. The assay is described as follows: Downregulation of OPN expression in 1% ethylene glycol-treated Rattus norvegicus Sprague-Dawley (rat) kidney at 3 mg/day, po after 14 days by ELISA (reference value: 75 +/- 13.5 %). The assay is classed as functional.
The species named for assay [3] is Rattus norvegicus. Briefly: Renoprotective activity in 1% ethylene glycol-treated Rattus norvegicus Sprague-Dawley (rat) kidney assessed as decrease in oxalate excretion in urine at 3 mg/day after 14 days (reference value: 4.07 +/- 0.05 uM). Type of assay: functional.
The species named for assay [4] is Rattus norvegicus. The assay is described as follows: Renoprotective activity in 1% ethylene glycol-treated Rattus norvegicus Sprague-Dawley (rat) kidney assessed as decrease in oxalate excretion in urine at 4 mg/day after 14 days (reference value: 4.07 +/- 0.05 uM). The assay is classed as functional.
In assay [5] the test system is Rattus norvegicus. The assay is described as follows: Downregulation of OPN expression in 1% ethylene glycol-treated Rattus norvegicus Sprague-Dawley (rat) kidney at 4 mg/day, po after 14 days by ELISA (reference value: 75 +/- 13.5 %). Type of assay: functional. In general terms: An ELISA detects its analyte on a solid surface through an enzyme-linked reagent.
The species entered for assay [6] is Rattus norvegicus. The assay is described as follows: Renoprotective activity in 1% ethylene glycol-treated Rattus norvegicus Sprague-Dawley (rat) kidney assessed as decrease in oxalate excretion in urine at 0.4 mg/day after 14 days (reference value: 4.07 +/- 0.05 uM). The assay is classed as functional.
In assay [7] the test system is Rattus norvegicus. Briefly: Downregulation of OPN expression in 1% ethylene glycol-treated Rattus norvegicus Sprague-Dawley (rat) kidney at 0.8 mg/day, po after 14 days by ELISA (reference value: 75 +/- 13.5 %). Type of assay: functional.
The species entered for assay [8] is Rattus norvegicus. The assay is described as follows: Renoprotective activity in Rattus norvegicus Sprague-Dawley (rat) kidney assessed as decrease in oxalate excretion in urine at 4 mg/day after 14 days in presence of water (reference value: 1.11 +/- 0.06 uM). Type of assay: functional.
Assay [9] concerns Rattus norvegicus. The assay is described as follows: Downregulation of OPN expression in 1% ethylene glycol-treated po dosed Rattus norvegicus Sprague-Dawley (rat) kidney at 0.4 mg/day, po after 14 days by ELISA. The assay is classed as functional, organism-based.
The subject of assay [10] is Rattus norvegicus. Briefly: Downregulation of OPN expression in 1% ethylene glycol-treated Rattus norvegicus Sprague-Dawley (rat) kidney at 2 mg/day, po after 14 days by ELISA (reference value: 75 +/- 13.5 %). Type of assay: functional.
In assay [11] the test system is Rattus norvegicus. Briefly: Downregulation of OPN expression in 1% ethylene glycol-treated Rattus norvegicus Sprague-Dawley (rat) kidney at 0.4 mg/day, po after 14 days by ELISA (reference value: 75 +/- 13.5 %). The assay is classed as functional.
In assay [12] the test system is Rattus norvegicus. Briefly: Downregulation of OPN expression in Rattus norvegicus Sprague-Dawley (rat) kidney at 0.4 mg/day, po after 14 days by ELISA in presence of water (reference value: 10 +/- 3 %). The assay is classed as functional.
The species entered for assay [13] is Rattus norvegicus. Briefly: Renoprotective activity in 1% ethylene glycol-treated Rattus norvegicus Sprague-Dawley (rat) kidney assessed as decrease in oxalate excretion in urine at 2 mg/day after 14 days (reference value: 4.07 +/- 0.05 uM). The assay is classed as functional.

`CC1=CC(=O)c2ccccc2C1=O` [MENADIONE]: the Activity was 3.04 µM in the assay listed under Rattus norvegicus [1]; 30% in the assay with Rattus norvegicus [2]; 2.01 µM in the assay listed under Rattus norvegicus [3]; 1.49 µM in the assay filed under Rattus norvegicus [4]; 20% in the assay on Rattus norvegicus [5]; 3.44 µM in the assay filed under Rattus norvegicus [6]. The Activity in the assay with Rattus norvegicus [7] is 55%; in the assay filed under Rattus norvegicus [8], 1.02 µM; in the assay with Rattus norvegicus [9] it was “Dose-dependent effect”; in the assay with Rattus norvegicus [10], 35%; with Rattus norvegicus [11], 70%; with Rattus norvegicus [12], 11%. For the same compound, in the assay listed under Rattus norvegicus [13], the Activity worked out at 2.55 µM.
